Data: US9777008B2, “PRMT5 inhibitors and uses thereof” (Epizyme, Inc., priority 2012, dated 2017)

Target: PRMT5/MEP50 (Homo sapiens (Human), UniProt O14744)
Experiment: PRMT5 Biochemical Assay (PRMT5/MEP50 enzyme assay on peptide substrate, 3H-SAM Flashplate)
Excerpt: S-adenosylmethionine (SAM), S-adenosylhomocysteine (SAH), bicine, KCl, Tween20, dimethylsulfoxide (DMSO), bovine skin gelatin (BSG), and Tris(2-carboxyethyl)phosphine hydrochloride solution (TCEP) were purchased from Sigma-Aldrich at the highest level of purity possible. ^3H-SAM was purchase from American Radiolabeled Chemicals with a specific activity of 80 Ci/mmol. 384-well streptavidin Flashplates were purchased from PerkinElmer.
Peptide representative of human histone H4 residues 1-15 was synthesized with a C-terminal linker-affinity tag motif and a C-terminal amide cap by 21st Century Biochemicals. The peptide was high high-performance liquid chromatography (HPLC) purified to greater than 95% purity and confirmed by liquid chromatography mass spectrometry (LC-MS). The sequence was Ac-[…][K-Biot]-amide (SEQ ID NO.:3).
Molecular Biology: Full-length human PRMT5 (NM_006109.3) transcript variant 1 clone was amplified from a fetal brain cDNA library, incorporating flanking 5′ sequence encoding a FLAG tag ([…]) (SEQ ID NO.:4) fused directly to Ala 2 of PRMT5. Full-length human MEP50 (NM_024102) clone was amplified from a human testis cDNA library incorporating a 5′ sequence encoding a 6-histidine tag (MHHHHHH) (SEQ ID NO.:5) fused directly to Arg 2 of MEP50. The amplified genes were sublconed into pENTR/D/TEV (Life Technologies) and subsequently transferred by Gateway™ attL×attR recombination to pDEST8 baculvirus expression vector (Life Technologies).
Recombinant baculovirus and Baculovirus-Infected Insect Cells (BIIC) were generated according to Bac-to-Bac kit instructions (Life Technologies) and Wasilko, 2006, respectively. Protein over-expression was accomplished by infecting exponentially growing Spodoptera frugiperda (SF9) cell culture at 1.2×10^6 cell/ml with a 5000 fold dilution of BIIC stock. Infections were carried out at 27° C. for 72 hours, harvested by centrifugation, and stored at −80° C. for purification.
Flag-PRMT5/6His-MeP50 was eluted with 300 mM Imidazole in the same buffer. The purity of recovered protein was 87%. Reference: Wasilko, D. J. and S. E. Lee: “TIPS: titerless infected-cells preservation and scale-up” Bioprocess J., 5 (2006), pp. 29-32.
General Procedure for PRMT5/MEP50 Enzyme Assays on Peptide Substrates.
The assays were all performed in a buffer consisting of 20 mM Bicine (pH=7.6), 1 mM TCEP, 0.005% BSG, and 0.002% Tween20, prepared on the day of use. Compounds in 100% DMSO (1 ul) were spotted into a polypropylene 384-well V-bottom plates (Greiner) using a Platemate Plus outfitted with a 384-channel head (Thermo Scientific). DMSO (1 ul) was added to Columns 11, 12, 23, 24, rows A-H for the maximum signal control and 1 ul of SAH, a known product and inhibitor of PRMT5/MEP50, was added to columns 11, 12, 23, 24, rows I-P for the minimum signal control. A cocktail (40 ul) containing the PRMT5/MEP50 enzyme and the peptide was added by Multidrop Combi (Thermo-Fisher). The compounds were allowed to incubate with PRMT5/MEP50 for 30 min at 25 degrees Celsius, then a cocktail (10 ul) containing ^3H-SAM was added to initiate the reaction (final volume=51 ul). The final concentrations of the components were as follows: PRMT5/MEP50 was 4 nM, ^3H-SAM was 75 nM, peptide was 40 nM, SAH in the minimum signal control wells was 100 uM, and the DMSO concentration was 1%. The assays were stopped by the addition of non-radioactive SAM (10 ul) to a final concentration of 600 uM, which dilutes the ^3H-SAM to a level where its incorporation into the peptide substrate is no longer detectable. 50 ul of the reaction in the 384-well polypropylene plate was then transferred to a 384-well Flashplate and the biotinylated peptides were allowed to bind to the streptavidin surface for at least 1 hour before being washed three times with 0.1% Tween20 in a Biotek ELx405 plate washer. […]

PRMT5/MEP50, sequence (O14744 other isoform, or with tags, fused parts or gaps): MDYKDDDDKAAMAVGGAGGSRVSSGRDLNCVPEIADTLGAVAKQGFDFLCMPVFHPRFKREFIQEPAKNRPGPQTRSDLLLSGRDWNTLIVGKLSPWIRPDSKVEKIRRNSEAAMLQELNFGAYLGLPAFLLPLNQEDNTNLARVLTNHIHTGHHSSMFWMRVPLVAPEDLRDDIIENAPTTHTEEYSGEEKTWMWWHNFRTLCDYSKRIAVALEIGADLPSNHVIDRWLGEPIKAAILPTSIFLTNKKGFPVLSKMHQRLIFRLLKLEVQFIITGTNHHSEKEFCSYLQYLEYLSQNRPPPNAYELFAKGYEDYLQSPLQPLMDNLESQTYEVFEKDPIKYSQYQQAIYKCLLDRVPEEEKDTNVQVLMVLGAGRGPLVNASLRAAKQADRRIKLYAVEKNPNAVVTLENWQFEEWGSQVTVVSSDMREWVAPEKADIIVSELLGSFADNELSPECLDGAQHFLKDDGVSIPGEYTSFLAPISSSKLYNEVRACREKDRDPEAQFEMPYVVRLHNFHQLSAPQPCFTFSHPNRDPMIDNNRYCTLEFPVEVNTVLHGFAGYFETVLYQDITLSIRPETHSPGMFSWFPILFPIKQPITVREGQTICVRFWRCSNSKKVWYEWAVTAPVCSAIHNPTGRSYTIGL
PRMT5/MEP50, sequence (Q9BQA1 other isoform, or with tags, fused parts or gaps partner): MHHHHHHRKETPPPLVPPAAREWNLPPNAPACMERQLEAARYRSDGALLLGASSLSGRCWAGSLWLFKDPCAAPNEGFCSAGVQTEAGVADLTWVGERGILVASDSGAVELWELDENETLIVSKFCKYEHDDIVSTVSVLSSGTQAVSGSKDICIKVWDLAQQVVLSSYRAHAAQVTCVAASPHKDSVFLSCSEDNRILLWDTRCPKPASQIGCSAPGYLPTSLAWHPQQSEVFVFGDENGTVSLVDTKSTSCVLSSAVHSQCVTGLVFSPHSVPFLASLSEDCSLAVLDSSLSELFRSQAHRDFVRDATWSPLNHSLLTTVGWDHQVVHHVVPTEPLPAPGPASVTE

Row | SMILES | IC50 [nM]
1 | CC1Cc2ccccc2CN1CC(O)COc1cccc(CNC2CCCC2)c1 (centres unmarked) [Compound 51] | > 40000
2 | O[C@H](COc1cccc(-c2cccc3cccnc23)c1)CN1CCc2ccccc2C1 [Compound 258, (S)-1-(3,4-dihydroisoquinolin-2(1H)-yl)-3-(3-(quinolin-8-yl)phenoxy)propan-2-ol] | 101 to 1000
3 | Cn1cncc1C(=O)Nc1cccc(OC[C@H](O)CN2CCc3ccccc3C2)c1 [Compound 259] | 101 to 1000
4 | OC(COc1cccc(-c2ccc3ncn(Cc4ccccc4)c3c2)c1)CN1CCc2ccccc2C1 (centres unmarked) [Compound 105, 1-(3-(1-benzyl-1H-benzo[d]imidazol-6-yl)phenoxy)-3-(3,4-dihydroisoquinolin-2(1H)-yl)propan-2-ol] | < 100
5 | Cn1cnc2ccc(-c3cccc(OCC(O)CN4CCc5ccccc5C4=O)c3)cc21 (centres unmarked) [Compound 225] | > 40000
6 | COc1ccc(Cn2ccc(-c3ccc(OC[C@H](O)CN4CCc5ccccc5C4)cc3)n2)cc1 [Compound 41] | 1000 to 10000
7 | Cc1ncc2ccc(-c3cccc(OCC(O)CN4CCc5ccccc5C4)c3)cn12 (centres unmarked) [Compound 266, 1-(3,4-dihydroisoquinolin-2(1H)-yl)-3-(3-(3-methylimidazo[1,5-a]pyridin-6-yl)phenoxy)propan-2-ol] | < 100
8 | CN(CC(O)CN1CCc2ccccc2C1)c1cccc(CNC2CCOCC2)c1 (centres unmarked) [Compound 116] | < 100
9 | OC(COc1ccc(C2CCCNC2)cc1)CN1CCc2ccccc2C1 (centres unmarked) [Compound 47] | < 100
10 | Cn1ccc2cnc(-c3cccc(OCC(O)CN4CCc5ccccc5C4)c3)nc21 (centres unmarked) [Compound 141, 1-(3,4-dihydroisoquinolin-2(1H)-yl)-3-(3-(7-methyl-7H-pyrrolo[2,3-d]pyrimidin-2-yl)phenoxy)propan-2-ol] | < 100
11 | CN1CCCCC1COCC(O)CN1CCc2ccccc2C1 (centres unmarked) [Compound 289] | > 40000
12 | Cn1cnc2ccc(-c3cccc(OCC(O)CN4CCc5ccccc5C4Cc4ccccc4)c3)cc21 (centres unmarked) [Compound 143] | > 40000
13 | O[C@@H](COc1cccc(CNC2CCCC2)c1)CN1CCc2ccccc2C1 [Compound 23] | 1000 to 10000
14 | OC(COCC1CCCCO1)CN1CCc2ccccc2C1 (centres unmarked) [Compound 304] | > 40000
15 | Cn1cnc2ccc(-c3cccc(OCC(O)CN4Cc5ccccc5C(F)(F)C4)c3)cc21 (centres unmarked) [Compound 277] | > 10000
16 | CN1CCC(OCC(O)CN2CCc3ccccc3C2)C1 (centres unmarked) [Compound 307] | > 40000
17 | Cn1cnc2ccc(-c3cccc(OCC(O)CN4CCc5ccccc5C4CC(N)=O)c3)cc21 (centres unmarked) [Compound 202] | > 40000
18 | CN(C)S(=O)(=O)c1cccc(-c2cccc(OCC(O)CN3CCc4ccccc4C3)c2)c1 (centres unmarked) [Compound 61] | > 40000
19 | OC(COC1CCNC1)CN1CCc2ccccc2C1 (centres unmarked) [Compound 306] | > 40000
20 | OC(COC1CCNCC1)CN1CCc2ccccc2C1 (centres unmarked) [Compound 298] | > 40000
21 | COc1cc2c(cc1OC)CN(CC(O)COc1cccc(CNC3CCCC3)c1)CC2 (centres unmarked) [Compound 30] | > 40000
22 | Cn1cc2ccc(-c3cccc(OCC(O)CN4CCc5ccccc5C4)c3)nc2n1 (centres unmarked) [Compound 210, 1-(3,4-dihydroisoquinolin-2(1H)-yl)-3-(3-(2-methyl-2H-pyrazolo[3,4-b]pyridin-6-yl)phenoxy)propan-2-ol] | < 100
23 | Cn1ccc2ccc(-c3cccc(OCC(O)CN4CCc5ccccc5C4)c3)nc21 (centres unmarked) [Compound 176, 1-(3,4-dihydroisoquinolin-2(1H)-yl)-3-(3-(1-methyl-1H-pyrrolo[2,3-b]pyridin-6-yl)phenoxy)propan-2-ol] | < 100

Next, values leading:

Row | IC50 [nM] | SMILES
24 | < 100 | CN1CC(n2cnc3ccc(-c4cccc(OCC(O)CN5CCc6ccccc6C5)c4)cc32)C1 (centres unmarked) [Compound 218, 1-(3,4-dihydroisoquinolin-2(1H)-yl)-3-(3-(1-(1-methylazetidin-3-yl)-1H-benzo[d]imidazol-6-yl)phenoxy)propan-2-ol]
25 | < 100 | Cn1cnc2ccc(-c3cncc(NCC(O)CN4CCc5ccccc5C4)c3)cc21 (centres unmarked) [Compound 199]
26 | < 100 | CC(=O)N(CC(O)CN1CCc2ccccc2C1)c1cccc(-c2ccc3ncn(C)c3c2)c1 (centres unmarked) [Compound 273, N-(3-(3,4-dihydroisoquinolin-2(1H)-yl)-2-hydroxypropyl)-N-(3-(1-methyl-1H-benzo[d]imidazol-6-yl)phenyl)acetamide]
27 | < 100 | OC(CNc1cc(-c2ccc3ncn(C4CCNC4)c3c2)ccn1)CN1CCc2ccccc2C1 (centres unmarked) [Compound 240]
28 | < 100 | Cn1cc2ccc(-c3cccc(NCC(O)CN4CCc5ccccc5C4)c3)nc2n1 (centres unmarked) [Compound 261]
29 | 101 to 1000 | OC(COc1cccc(-c2ccc3ncsc3c2)c1)CN1CCc2ccccc2C1 (centres unmarked) [Compound 123, 1-(3-(benzo[d]thiazol-6-yl)phenoxy)-3-(3,4-dihydroisoquinolin-2(1H)-yl)propan-2-ol]
30 | < 100 | CN1CCC(n2cnc3ccc(-c4ccnc(NCC(O)CN5CCc6ccccc6C5)c4)cc32)C1 (centres unmarked) [Compound 250]
31 | < 100 | OC(COc1cccc(-c2ccc3ncn(C4COC4)c3c2)c1)CN1CCc2ccccc2C1 (centres unmarked) [Compound 269]
32 | < 100 | OC(COc1cccc(-c2ccc3ncn(C4CCNC4)c3c2)c1)CN1CCc2ccccc2C1 (centres unmarked) [Compound 209, 1-(3,4-dihydroisoquinolin-2(1H)-yl)-3-(3-(1-(pyrrolidin-3-yl)-1H-benzo[d]imidazol-6-yl)phenoxy)propan-2-ol]
33 | < 100 | CN1CCC(n2cnc3ccc(-c4cccc(OCC(O)CN5CCc6ccccc6C5)c4)cc32)C1 (centres unmarked) [Compound 219]
34 | < 100 | CN1CCN(C(=O)Cn2ccc3cnc(-c4ccnc(NCC(O)CN5CCc6ccccc6C5)c4)nc32)CC1 (centres unmarked) [Compound 247]
35 | < 100 | Cn1cnc2ccc(-c3cccc(NCC(O)CN4CCc5ccccc5C4)c3)cc21 (centres unmarked) [Compound 102, 1-(3,4-dihydroisoquinolin-2(1H)-yl)-3-((3-(1-methyl-1H-benzo[d]imidazol-6-yl)phenyl)amino)propan-2-ol]
36 | < 100 | Cn1ncc2ccc(-c3ccnc(NCC(O)CN4CCc5ccccc5C4)c3)cc21 (centres unmarked) [Compound 226]
37 | < 100 | O=C(Cn1ccc2cnc(-c3ccnc(NCC(O)CN4CCc5ccccc5C4)c3)nc21)N1CCCCC1 (centres unmarked) [Compound 246]
38 | < 100 | O=C(Cn1ccc2cnc(-c3ccnc(NCC(O)CN4CCc5ccccc5C4)c3)nc21)N1CCCC1 (centres unmarked) [Compound 233]
39 | < 100 | O=C(Cn1ccc2cnc(-c3ccnc(NCC(O)CN4CCc5ccccc5C4)c3)nc21)N1CCOCC1 (centres unmarked) [Compound 234, 2-(2-(2-((3-(3,4-dihydroisoquinolin-2(1H)-yl)-2-hydroxypropyl)amino)pyridin-4-yl)-7H-pyrrolo[2,3-d]pyrimidin-7-yl)-1-morpholinoethanone]
40 | < 100 | OC(CNc1cc(-c2ccc3ncn(C4CCNCC4)c3c2)ccn1)CN1CCc2ccccc2C1 (centres unmarked) [Compound 241]
41 | < 100 | CN1CCC(n2cnc3ccc(-c4ccnc(NCC(O)CN5CCc6ccccc6C5)c4)cc32)CC1 (centres unmarked) [Compound 252]
42 | < 100 | Cn1ccc2ccc(-c3ccnc(NCC(O)CN4CCc5ccccc5C4)c3)cc21 (centres unmarked) [Compound 227]
43 | 101 to 1000 | Cn1cnc2ccc(-c3ccnc(NC[C@@H](O)CN4CCc5ccccc5C4)c3)cc21 [Compound 276]
44 | < 100 | Cn1cnc2ccc(-c3cccc(OCC(O)CN4CCc5ccccc5C4)c3)cc21 (centres unmarked) [Compound 45, 1-(3,4-dihydroisoquinolin-2(1H)-yl)-3-(3-(1-methyl-1H-benzo[d]imidazol-6-yl)phenoxy)propan-2-ol]
